Experimental data reported in ChEMBL document CHEMBL1275518, “Low penetration of oseltamivir and its carboxylate into cerebrospinal fluid in healthy Japanese and Caucasian volunteers” (Antimicrob Agents Chemother, 2008).

Tests used:
[1] = Cmax in healthy adult plasma at 150 mg, po administered as single dose by LC/MS analysis; type: ADME, organism-based; set-up: dose 150 mg, route oral; settings: human
[2] = Cmax in healthy adult CSF at 150 mg, po administered as single dose by LC/MS analysis; type: ADME, organism-based, Cerebrospinal fluid; set-up: dose 150 mg, route oral; settings: human
[3] = Tmax in healthy adult plasma at 150 mg, po administered as single dose by LC/MS analysis; type: ADME, organism-based; settings: human
[4] = Tmax in healthy adult CSF at 150 mg, po administered as single dose by LC/MS analysis; type: ADME, organism-based, Cerebrospinal fluid; settings: human
[5] = Clast in healthy adult plasma at 150 mg, po administered as single dose by LC/MS analysis; type: ADME, organism-based; settings: human, in vivo
[6] = Clast in healthy adult CSF at 150 mg, po administered as single dose by LC/MS analysis; type: ADME, organism-based, Cerebrospinal fluid; settings: human, in vivo
[7] = Tlast in healthy adult plasma at 150 mg, po administered as single dose by LC/MS analysis; type: ADME, organism-based; settings: human, in vivo
[8] = Tlast in healthy adult CSF at 150 mg, po administered as single dose by LC/MS analysis; type: ADME, organism-based, Cerebrospinal fluid; settings: human, in vivo
[9] = AUC (0 to last) in healthy adult plasma at 150 mg, po administered as single dose by LC/MS analysis; type: ADME, organism-based; set-up: dose 150 mg, time 0 - last, route oral; settings: human
[10] = AUC (0 to last) in healthy adult CSF at 150 mg, po administered as single dose by LC/MS analysis; type: ADME, organism-based; set-up: dose 150 mg, route oral, time 0 - last; settings: human
[11] = Half life in healthy adult plasma at 150 mg, po administered as single dose by LC/MS analysis; type: ADME, organism-based; settings: human
[12] = AUC (0 to infinity) in healthy adult plasma at 150 mg, po administered as single dose by LC/MS analysis; type: ADME, organism-based; set-up: dose 150 mg, time infinity, route oral; settings: human
[13] = Apparent oral clearance in healthy adult plasma at 150 mg, po administered as single dose by LC/MS analysis; type: ADME, organism-based; settings: human
[14] = Ratio of Cmax in healthy adult CSF to Cmax in healthy adult plasma at 150 mg, po administered as single dose; type: ADME, organism-based; settings: human
[15] = Ratio of AUC (0 to last) in healthy adult CSF to AUC (0 to last) in healthy adult plasma at 150 mg, po administered as single dose; type: ADME, organism-based; settings: human
[16] = Cmax in healthy adult plasma assessed as oseltamivir carboxylate at 150 mg, po administered as single dose by LC/MS analysis; type: ADME, organism-based; set-up: dose 150 mg, route oral; settings: human, in vivo
[17] = Cmax in healthy adult CSF assessed as oseltamivir carboxylate at 150 mg, po administered as single dose by LC/MS analysis; type: ADME, organism-based, Cerebrospinal fluid; set-up: dose 150 mg, route oral; settings: human, in vivo
[18] = Tmax in healthy adult plasma assessed as oseltamivir carboxylate at 150 mg, po administered as single dose by LC/MS analysis; type: ADME, organism-based; settings: human, in vivo
[19] = Tmax in healthy adult CSF assessed as oseltamivir carboxylate at 150 mg, po administered as single dose by LC/MS analysis; type: ADME, organism-based, Cerebrospinal fluid; settings: human, in vivo
[20] = Clast in healthy adult plasma assessed as oseltamivir carboxylate at 150 mg, po administered as single dose by LC/MS analysis; type: ADME, organism-based; settings: human, in vivo
[21] = Clast in healthy adult CSF assessed as oseltamivir carboxylate at 150 mg, po administered as single dose by LC/MS analysis; type: ADME, organism-based, Cerebrospinal fluid; settings: human, in vivo
[22] = Tlast in healthy adult plasma assessed as oseltamivir carboxylate at 150 mg, po administered as single dose by LC/MS analysis; type: ADME, organism-based; settings: human, in vivo
[23] = Tlast in healthy adult CSF assessed as oseltamivir carboxylate at 150 mg, po administered as single dose by LC/MS analysis; type: ADME, organism-based, Cerebrospinal fluid; settings: human, in vivo
[24] = AUC (0 to last) in healthy adult plasma assessed as oseltamivir carboxylate at 150 mg, po administered as single dose by LC/MS analysis; type: ADME, organism-based; set-up: dose 150 mg, time 0 - last, route oral; settings: human, in vivo
[25] = AUC (0 to last) in healthy adult CSF assessed as oseltamivir carboxylate at 150 mg, po administered as single dose by LC/MS analysis; type: ADME, organism-based, Plasma; set-up: dose 150 mg, route oral, time 0 - last; settings: human, in vivo
[26] = Half life in healthy adult plasma assessed as oseltamivir carboxylate at 150 mg, po administered as single dose by LC/MS analysis; type: ADME, organism-based; settings: human, in vivo
[27] = AUC (0 to infinity) in healthy adult plasma assessed as oseltamivir carboxylate at 150 mg, po administered as single dose by LC/MS analysis; type: ADME, organism-based; set-up: dose 150 mg, time infinity, route oral; settings: human, in vivo
[28] = Ratio of Cmax in healthy adult CSF to Cmax in healthy adult plasma assessed as oseltamivir carboxylate at 150 mg, po administered as single dose; type: ADME, organism-based; settings: human
[29] = Ratio of AUC (0 to last) in healthy adult CSF to AUC (0 to last) in healthy adult plasma assessed as oseltamivir carboxylate at 150 mg, po administered as single dose; type: ADME, organism-based; settings: human

Work on `CCOC(=O)C1=C[C@@H](OC(CC)CC)[C@H](NC(C)=O)[C@@H](N)C1.O=P(O)(O)O` [OSELTAMIVIR PHOSPHATE] yielded a Cmax [1] of 115 ng/mL, a Cmax [2] of 2.4 ng/mL and a Tmax [3] of 1 h. It also gave a Tmax [4] of 3.5 h, a Clast [5] of 2.1 ng/mL and a Clast [6] of 1.4 ng/mL. For the same compound, the Tlast [7] was 10.5 h, the Tlast [8] was 5.5 h and the AUC(0-t) [9] was 308 ng·h/mL. It also gave an AUC(0-t) [10] of 7.6 ng·h/mL, a half-life [11] of 1.8 h and an AUC(0-inf) [12] of 313 ng·h/mL. It also gave a CL/F [13] of 8370 mL/min, a Kp [14] of 2.1% and a Kp [15] of 2.4%. It also gave a Cmax [16] of 544 ng/mL, a Cmax [17] of 19 ng/mL and a Tmax [18] of 5 h. For the same compound, the Tmax [19] was 8 h, the Clast [20] was 50.2 ng/mL and the Clast [21] was 14.5 ng/mL. The Tlast [22] was 24 h, the Tlast [23] was 12 h and the AUC [24] was 5540 ng·h/mL. It also gave an AUC [25] of 157 ng·h/mL, a t1/2 [26] of 5.4 h and an AUC [27] of 5950 ng·h/mL. For the same compound, the Ratio [28] was 3.5% and the Ratio AUC [29] was 2.9%.
